# “Also recorded” adds a separate entry of the source.
# How the values were obtained:
# [1] = test system: calpain-specific SBDP150 in nerve fiber layer (NFL); test: SBDP150 immunostaining of flat-mounted retinal explants under hypoxia/reoxygenation; type: cell-based, rhesus macaques (Macaca mulatta); details: H16R8; for Effect on calpain-specific SBDP150-positive staining in NFL: cathepsin inhibitor at 10 or 100 µM
# Procedure: (§1) Retina explant culture was performed as described in our previous report, except for the induction of hypoxia. Briefly, a hypoxic chamber (Coy Laboratory Products, Grass Lake, MI, USA) was controlled at 0.3% oxygen with a 95% N2/5% CO2 gas mixture. Retinas were dissected into fan-shaped explants with 6 or 7 petals (> 5 mm) in HBSS. Each explant was placed with the RGC side facing up on a Millicell organotypic standing insert (0.4 μm, 30 mm diameter, MilliporeSigma) in six-well, culture plates. They were cultured for 2 hr at 37°C under 95% N2/5% CO2 in Neurobasal-A medium supplemented with B27, N2 supplements, 2 mM L-glutamine (Thermo Fisher Scientific, Waltham, MA, USA), and 100 μg/mL primocin (Invivogen, San Diego, CA, USA). Retinal explants were then chamber-cultured under hypoxic conditions for 16 hr in a culture medium with 0.5 mM glucose, under 0.3% oxygen. The retinas were then re-oxygenated for 8 hr in a culture medium with 5.5 mM glucose. Normoxic control retinas were cultured for 24 hr in a culture medium with 5.5 mM glucose. When present, calpain inhibitors (SNJ-1945, PD-151746, C2I, and ABT-957) and cathepsin inhibitors (Odanacatib and SID26681509) in 0.1% DMSO were used at the final concentration of 10 or 100 μM in the medium. BAPTA (Thermo Fisher Scientific) and BAPTA-AM (Thermo Fisher Scientific) were also used at a final concentration of 3 or 10 mM or a final concentration of 100 or 500 μM, respectively.
# (§2) All inhibitors and BAPTA were treated simultaneously with hypoxia induction, and BAPTA-AM treatment was 2 hr before hypoxia induction.
# Formalin-fixed retinal explants were incubated overnight at −30°C in 1: 4 dilutions of DMSO-ethanol to promote antibody penetration. The explants underwent two cycles of freezing and thawing between −80°C and room temperature in 100% ethanol for 20 min. The retinas were then rehydrated in 70%, 50%, and 15% ethanol and PBS for 20 min each, followed by overnight incubation with 0.2% Triton X-100. The samples were stained with antibodies specific for calpain-specific SBDP150 [8] (1:100 dilution, Senju Pharmaceutical) and β-III tubulin (a neuron marker, 1:500 dilution, Merck). The nerve fiber layer (NFL) was observed approximately 5 mm from the tips of the fan-shaped retinal flat mounts. Confocal images were taken using a model LSM 880 spectral confocal system with a 20x 0.8 NA lens (Carl Zeiss, Oberkochen, Germany).
# [2] = test system: calpain 1 activation and proteolysis of α-spectrin; test: Immunoblotting of retinal explants under hypoxia/reoxygenation; type: cell-based, rhesus macaques (Macaca mulatta); details: H16R8
# Procedure: as §1, §2
# Each retinal explant was sonicated in RIPA Lysis and Extraction Buffer (Thermo Fisher Scientific), with protease inhibitors cocktail (Complete Mini-EDTA-free; MilliporeSigma). Protein concentrations in lysates were measured by BCA assay (Pierce BCA Protein Assay Kit, Thermo Fisher Scientific) using bovine serum albumin as a standard. For immunoblotting, 5 μg of each sample was loaded and run on 4% to 12% gradient or 10% SDS-PAGE gels (NuPAGE Bis-Tris Protein Gels, Thermo Fisher Scientific) with 2-(N-morpholino)ethanesulfonic acid buffer or 3-(N-morpholino) propanesulfonic acid buffer (Thermo Fisher Scientific). Proteins were then electrotransferred to a polyvinylidene fluoride membrane (MilliporeSigma) at 100 V for 60 min or 1.5 hr. Membranes were then blocked with 5% skim milk in Tris-buffer saline (Bio-Rad Laboratories, Hercules, CA, USA) containing 0.05% Tween 20. Each membrane was probed with primary antibodies against α-spectrin (1:2000 dilution, Enzo Life Sciences, Farmingdale, NY, USA), SBDP150 (1:1000 dilution, Senju Pharmaceutical), calpain 1 (1:1000 dilution, Thermo Fisher Scientific), calpain 2 (1:500, GeneTex, Irvine, CA, USA), cathepsin K (1:500 dilution, Abcam), and β-actin (1:1000 dilution, Merck). For calpain 1, immunoreactivity was visualized using a secondary antibody conjugated to alkaline phosphatase and the AP Conjugate Substrate Kit (Bio-Rad Laboratories). For other proteins, immunoreactivities were visualized using secondary antibodies conjugated with rabbit (Santa Cruz Biotechnology) or mouse horseradish peroxidase enzyme (Cytiva, Wilmington, DE, USA) and ECL Plus detection reagents (Cytiva). Images of the membranes were captured with FluorChem FC2 imager (Cell Biosciences, Santa Clara, CA, USA). The conversion of pro-cathepsin K (38 kDa) to its mature form (27 kDa) was used as an indicator of cathepsin K activation.
# [3] = cathepsin inhibitor at 10 or 100 µM
Compound,Effect on calpain-specific SBDP150-positive staining in NFL [1],"Effect on activation of calpain 1 and proteolysis of α-spectrin (immunoblot) [2, 3]",Effect on calpain-specific SBDP150 staining in NFL (calpain activation) ([1]; calpain inhibitor at 100 µM),Effect on activation of calpain 1 and proteolysis of α-spectrin (immunoblot) ([2]; calpain inhibitors (SNJ-1945 100 µM))
CC(C)(F)C[C@H](N[C@@H](c1ccc(-c2ccc(S(C)(=O)=O)cc2)cc1)C(F)(F)F)C(=O)NC1(C#N)CC1 [Odanacatib],Neither Odanacatib nor SID26681509 mitigated the increase,did not mitigate,,
CCc1ccccc1NC(=O)CSC(=O)NNC(=O)[C@H](Cc1c[nH]c2ccccc12)NC(=O)OC(C)(C)C [SID26681509],Neither Odanacatib nor SID26681509 mitigated the increase,did not mitigate,,
COCCOCCOC(=O)N[C@@H](CC(C)C)C(=O)N[C@@H](Cc1ccccc1)C(=O)C(=O)NC1CC1 [SNJ-1945],,,demonstrated efficacy in reducing calpain activation,effectively ameliorated; also recorded: inhibited the autolytic activation of calpain 1; also recorded: nearly completely inhibited calpain-induced proteolysis

# — publication PMC12250347, “Calcium-dependent pathway as a primary cause of hypoxic RGC damage in monkey retinal explants” (PLOS One, 2025)
